According to patent publication US20200231638A1, “STABILIZED ANTI-MICROBIAL PEPTIDES” (priority 2015, published 2020):
Bridge positions count the residues as written; N and C are the ends. Square brackets hold non-standard residues; d marks the D form. Peptide text beside a SMILES is read from it. S5 = C=CCCC[C@](C)(N)C(=O)O; Nle = CCCC[C@H](N)C(=O)O

Columns and labels:
B. cereus = assay type: cell-based, Bacillus cereus
Procedure, shortened: (§1)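 Read-out is visible growth: the MIC is the lowest peptide concentration showing none after 20-24 hours at 37° C. Bacteria in refined (anion-exchanged) Mueller-Hinton broth were seeded at a final 5×10^5 CFU/ml onto water-based peptide serial dilutions.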

E. coli = assay type: cell-based, Escherichia coli
Procedure, shortened: as §1

human red blood cells = assay type: cell-based; settings: red cells of human, 1 h, 25
Procedure, shortened: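 Hemolysis expressed as absorbance of released hemoglobin (570 nm) normalized between untreated and 1% Triton-X100 controls, with MHC taken as peptide concentration giving under 1% release. Peptide dilutions were exposed for 1 h at 37° C to a 1% (v/v) suspension of washed human red cells in PBS.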

S. aureus = assay type: cell-based, Staphylococcus aureus
Procedure, shortened: as §1

P. aeruginosa = assay type: cell-based, Pseudomonas aeruginosa
Procedure, shortened: as §1

CCCC[C@H](NC(=O)[C@]1(C)CCCC=CCCC[C@](C)(NC(=O)[C@H](CCCCN)NC(=O)[C@H](CCCCN)NC(=O)CNC(=O)[C@H](Cc2ccccc2)NC(=O)[C@H](CCCCN)NC(=O)[C@H](CCCCN)NC(=O)[C@H](C)NC(=O)[C@H](CO)NC(=O)[C@H](Cc2c[nH]cn2)NC(=O)[C@H](CC(C)C)NC(=O)[C@H](Cc2ccccc2)NC(=O)[C@H](CCCCN)NC(=O)CNC(=O)[C@@H](NC(=O)CN)[C@@H](C)CC)C(=O)N[C@@H](C(C)C)C(=O)NCC(=O)N[C@@H](CCC(=O)O)C(=O)N1)C(=O)N[C@@H](CC(N)=O)C(=O)N[C@@H](CO)C(N)=O [Mag(i + 4)15(A15K), GIGKFLHSAKKFGKKXVGEXBNS] (H-GIGKFLHSAKKFGKK[S5]VGE[S5][Nle]NS-NH2; staple 16-20)
MIC B. cereus (B. cereus): 6.2 µg/mL
MIC E. coli (E. coli): 3.1 µg/mL
% Hemolysis at 25 μg/ml (human red blood cells): 4.1%
MIC S. aureus (S. aureus): 25 µg/mL
MIC P. aeruginosa (P. aeruginosa): 3.1 µg/mL

CC[C@H](C)[C@H](NC(=O)CN)C(=O)NCC(=O)N[C@@H](CCCCN)C(=O)N[C@@H](Cc1ccccc1)C(=O)N[C@@H](CC(C)C)C(=O)N[C@@H](Cc1c[nH]cn1)C(=O)N[C@@H](CO)C(=O)N[C@@H](C)C(=O)N[C@@H](CCCCN)C(=O)N[C@@H](CCCCN)C(=O)N[C@@H](Cc1ccccc1)C(=O)NCC(=O)N[C@@H](CCCCN)C(=O)N[C@@H](C)C(=O)N[C@@]1(C)CCCC=CCCC[C@@](C)(C(=O)N[C@@H](CCC(=O)O)C(=O)N[C@@H](CC(N)=O)C(=O)N[C@@H](CO)C(N)=O)NC(=O)[C@H](CCC(=O)O)NC(=O)CNC(=O)[C@H](C(C)C)NC1=O [Mag(i + 4)15(B21E), GIGKFLHSAKKFGKAXVGEXENS] (H-GIGKFLHSAKKFGKA[S5]VGE[S5]ENS-NH2; staple 16-20)
MIC B. cereus (B. cereus): >50 µg/mL
MIC E. coli (E. coli): 25 µg/mL
% Hemolysis at 25 μg/ml (human red blood cells): 0.8%
MIC S. aureus (S. aureus): >50 µg/mL
MIC P. aeruginosa (P. aeruginosa): >50 µg/mL

CC[C@H](C)[C@H](NC(=O)CN)C(=O)NCC(=O)N[C@@H](CCCCN)C(=O)N[C@@H](Cc1ccccc1)C(=O)N[C@@H](CC(C)C)C(=O)N[C@@H](Cc1c[nH]cn1)C(=O)N[C@@H](CO)C(=O)N[C@@H](C)C(=O)N[C@@H](CCCCN)C(=O)N[C@@H](CCCCN)C(=O)N[C@@H](Cc1ccccc1)C(=O)NCC(=O)N[C@@H](CCCCN)C(=O)N[C@@H](C)C(=O)N[C@@]1(C)CCCC=CCCC[C@@](C)(C(=O)N[C@@H](CCCCN)C(=O)N[C@@H](CC(N)=O)C(=O)N[C@@H](CO)C(N)=O)NC(=O)[C@H](CCC(=O)O)NC(=O)CNC(=O)[C@H](C(C)C)NC1=O [Mag(i + 4)15(B21K), GIGKFLHSAKKFGKAXVGEXKNS] (H-GIGKFLHSAKKFGKA[S5]VGE[S5]KNS-NH2; staple 16-20)
MIC B. cereus (B. cereus): 25 µg/mL
MIC E. coli (E. coli): 1.6 µg/mL
% Hemolysis at 25 μg/ml (human red blood cells): 3.7%
MIC S. aureus (S. aureus): >50 µg/mL
MIC P. aeruginosa (P. aeruginosa): 6.2 µg/mL

CCCC[C@H](NC(=O)[C@]1(C)CCCC=CCCC[C@](C)(NC(=O)[C@H](C)NC(=O)[C@H](CCC(=O)O)NC(=O)CNC(=O)[C@H](Cc2ccccc2)NC(=O)[C@H](CCCCN)NC(=O)[C@H](CCCCN)NC(=O)[C@H](C)NC(=O)[C@H](CO)NC(=O)[C@H](Cc2c[nH]cn2)NC(=O)[C@H](CC(C)C)NC(=O)[C@H](Cc2ccccc2)NC(=O)[C@H](CCCCN)NC(=O)CNC(=O)[C@@H](NC(=O)CN)[C@@H](C)CC)C(=O)N[C@@H](C(C)C)C(=O)NCC(=O)N[C@@H](CCC(=O)O)C(=O)N1)C(=O)N[C@@H](CC(N)=O)C(=O)N[C@@H](CO)C(N)=O [Mag(i + 4)15(E14E), GIGKFLHSAKKFGEAXVGEXBNS] (H-GIGKFLHSAKKFGEA[S5]VGE[S5][Nle]NS-NH2; staple 16-20)
MIC B. cereus (B. cereus): 50 µg/mL
MIC E. coli (E. coli): 12.5 µg/mL
% Hemolysis at 25 μg/ml (human red blood cells): 3.3%
MIC S. aureus (S. aureus): >50 µg/mL
MIC P. aeruginosa (P. aeruginosa): >50 µg/mL

CCCC[C@H](NC(=O)[C@]1(C)CCCC=CCCC[C@](C)(NC(=O)[C@H](C)NC(=O)[C@H](CCCCN)NC(=O)CNC(=O)[C@H](Cc2ccccc2)NC(=O)[C@H](CCCCN)NC(=O)[C@H](CCCCN)NC(=O)[C@H](C)NC(=O)[C@H](CO)NC(=O)[C@H](Cc2c[nH]cn2)NC(=O)[C@H](CC(C)C)NC(=O)[C@H](Cc2ccccc2)NC(=O)[C@H](CCCCN)NC(=O)CNC(=O)[C@@H](NC(=O)CN)[C@@H](C)CC)C(=O)N[C@@H](C(C)C)C(=O)NCC(=O)N[C@@H](CCCCN)C(=O)N1)C(=O)N[C@@H](CC(N)=O)C(=O)N[C@@H](CO)C(N)=O [Mag(i + 4)15(E19K), GIGKFLHSAKKFGKAXVGKXBNS] (H-GIGKFLHSAKKFGKA[S5]VGK[S5][Nle]NS-NH2; staple 16-20)
MIC B. cereus (B. cereus): 6.2 µg/mL
MIC E. coli (E. coli): 1.6 µg/mL
% Hemolysis at 25 μg/ml (human red blood cells): 7.1%
MIC S. aureus (S. aureus): 12.5 µg/mL
MIC P. aeruginosa (P. aeruginosa): 3.1 µg/mL

CCCC[C@H](NC(=O)[C@]1(C)CCCC=CCCC[C@](C)(NC(=O)[C@H](C)NC(=O)[C@H](CCCCN)NC(=O)CNC(=O)[C@H](Cc2ccccc2)NC(=O)[C@H](CCCCN)NC(=O)[C@H](CCCCN)NC(=O)[C@H](C)NC(=O)[C@H](CO)NC(=O)[C@H](Cc2c[nH]cn2)NC(=O)[C@H](CC(C)C)NC(=O)[C@H](CCCCN)NC(=O)[C@H](CCCCN)NC(=O)CNC(=O)[C@@H](NC(=O)CN)[C@@H](C)CC)C(=O)N[C@@H](C(C)C)C(=O)NCC(=O)N[C@@H](CCC(=O)O)C(=O)N1)C(=O)N[C@@H](CC(N)=O)C(=O)N[C@@H](CO)C(N)=O [Mag(i + 4)15(F5K), GIGKKLHSAKKFGRAXVGEXBNS] (H-GIGKKLHSAKKFGKA[S5]VGE[S5][Nle]NS-NH2; staple 16-20; N-terminus and C-terminus assumed)
MIC B. cereus (B. cereus): >50 µg/mL
MIC E. coli (E. coli): 3.1 µg/mL
% Hemolysis at 25 μg/ml (human red blood cells): 1.7%
MIC S. aureus (S. aureus): >50 µg/mL
MIC P. aeruginosa (P. aeruginosa): 12.5 µg/mL

CCCC[C@H](NC(=O)[C@]1(C)CCCC=CCCC[C@](C)(NC(=O)[C@H](C)NC(=O)[C@H](CCCCN)NC(=O)CNC(=O)[C@H](CCC(=O)O)NC(=O)[C@H](CCCCN)NC(=O)[C@H](CCCCN)NC(=O)[C@H](C)NC(=O)[C@H](CO)NC(=O)[C@H](Cc2c[nH]cn2)NC(=O)[C@H](CC(C)C)NC(=O)[C@H](Cc2ccccc2)NC(=O)[C@H](CCCCN)NC(=O)CNC(=O)[C@@H](NC(=O)CN)[C@@H](C)CC)C(=O)N[C@@H](C(C)C)C(=O)NCC(=O)N[C@@H](CCC(=O)O)C(=O)N1)C(=O)N[C@@H](CC(N)=O)C(=O)N[C@@H](CO)C(N)=O [Mag(i + 4)15(F12E), GIGKFLHSAKKEGKAXVGEXBNS] (H-GIGKFLHSAKKEGKA[S5]VGE[S5][Nle]NS-NH2; staple 16-20)
MIC B. cereus (B. cereus): >50 µg/mL
MIC E. coli (E. coli): 50 µg/mL
% Hemolysis at 25 μg/ml (human red blood cells): 0.6%
MIC S. aureus (S. aureus): >50 µg/mL
MIC P. aeruginosa (P. aeruginosa): >50 µg/mL

CCCC[C@H](NC(=O)[C@]1(C)CCCC=CCCC[C@](C)(NC(=O)[C@H](C)NC(=O)[C@H](CCCCN)NC(=O)CNC(=O)[C@H](CCCCN)NC(=O)[C@H](CCCCN)NC(=O)[C@H](CCCCN)NC(=O)[C@H](C)NC(=O)[C@H](CO)NC(=O)[C@H](Cc2c[nH]cn2)NC(=O)[C@H](CC(C)C)NC(=O)[C@H](Cc2ccccc2)NC(=O)[C@H](CCCCN)NC(=O)CNC(=O)[C@@H](NC(=O)CN)[C@@H](C)CC)C(=O)N[C@@H](C(C)C)C(=O)NCC(=O)N[C@@H](CCC(=O)O)C(=O)N1)C(=O)N[C@@H](CC(N)=O)C(=O)N[C@@H](CO)C(N)=O [Mag(i + 4)15(F12K), GIGKFLHSAKKKGKAXVGEXBNS] (H-GIGKFLHSAKKKGKA[S5]VGE[S5][Nle]NS-NH2; staple 16-20)
MIC B. cereus (B. cereus): >50 µg/mL
MIC E. coli (E. coli): 3.1 µg/mL
% Hemolysis at 25 μg/ml (human red blood cells): 2.0%
MIC S. aureus (S. aureus): >50 µg/mL
MIC P. aeruginosa (P. aeruginosa): 12.5 µg/mL

CCCC[C@H](NC(=O)[C@]1(C)CCCC=CCCC[C@](C)(NC(=O)[C@H](C)NC(=O)[C@H](CCCCN)NC(=O)CNC(=O)[C@H](Cc2ccccc2)NC(=O)[C@H](CCCCN)NC(=O)[C@H](CCCCN)NC(=O)[C@H](C)NC(=O)[C@H](CO)NC(=O)[C@H](Cc2c[nH]cn2)NC(=O)[C@H](CC(C)C)NC(=O)[C@H](Cc2ccccc2)NC(=O)[C@H](CCCCN)NC(=O)CNC(=O)[C@@H](NC(=O)[C@@H](N)CCC(=O)O)[C@@H](C)CC)C(=O)N[C@@H](C(C)C)C(=O)NCC(=O)N[C@@H](CCC(=O)O)C(=O)N1)C(=O)N[C@@H](CC(N)=O)C(=O)N[C@@H](CO)C(N)=O [Mag(i + 4)15(G1E), EIGKFLHSAKKFGKAXVGEXBNS] (H-EIGKFLHSAKKFGKA[S5]VGE[S5][Nle]NS-NH2; staple 16-20)
MIC B. cereus (B. cereus): >50 µg/mL
MIC E. coli (E. coli): 12.5 µg/mL
% Hemolysis at 25 μg/ml (human red blood cells): 4.1%
MIC S. aureus (S. aureus): >50 µg/mL
MIC P. aeruginosa (P. aeruginosa): 50 µg/mL

CCCC[C@H](NC(=O)[C@]1(C)CCCC=CCCC[C@](C)(NC(=O)[C@H](C)NC(=O)[C@H](CCCCN)NC(=O)CNC(=O)[C@H](Cc2ccccc2)NC(=O)[C@H](CCCCN)NC(=O)[C@H](CCCCN)NC(=O)[C@H](C)NC(=O)[C@H](CO)NC(=O)[C@H](Cc2c[nH]cn2)NC(=O)[C@H](CC(C)C)NC(=O)[C@H](Cc2ccccc2)NC(=O)[C@H](CCCCN)NC(=O)CNC(=O)[C@@H](NC(=O)[C@@H](N)CCCCN)[C@@H](C)CC)C(=O)N[C@@H](C(C)C)C(=O)NCC(=O)N[C@@H](CCC(=O)O)C(=O)N1)C(=O)N[C@@H](CC(N)=O)C(=O)N[C@@H](CO)C(N)=O [Mag(i + 4)15(G1K), KIGKFLHSAKKFGKAXVGEXBNS] (H-KIGKFLHSAKKFGKA[S5]VGE[S5][Nle]NS-NH2; staple 16-20)
MIC B. cereus (B. cereus): 12.5 µg/mL
MIC E. coli (E. coli): 1.6 µg/mL
% Hemolysis at 25 μg/ml (human red blood cells): 4.5%
MIC S. aureus (S. aureus): 25 µg/mL
MIC P. aeruginosa (P. aeruginosa): 3.1 µg/mL
